Test results published in patent US20150157659A1, “METHOD OF INDUCING AUTOPHAGY AND ACTIVATING TOLL-LIKE RECEPTOR” (National Tsing Hua University, priority 2013, published 2015).

Experiments:
[1] = system: RAW 264.7 cells; experiment: Immunofluorescence microscopy for Beclin 1 and LC3; type: cell-based, mouse
Description: The cells were fixed and permeabilized as described previously, followed by extensive washing and primary antibody staining (1:100 dilution) for 1 h at 4° C. in the dark. The primary antibody was specific for LC3 (4108, Cell Signaling Technology), Beclin 1 (ab55878, Abcam), TLR4 (14-9924, eBioscience), TLR9 (ab17236, abcam), MyD88 (ab2068, abcam), TRAF6 (ab33915, abcam), phosphorylated NF-κB (3033, Cell Signaling Technology) or IRF3 (sc-15991, Santa Cruz Biotechnology). After washing, the cells were incubated with the goat anti-mouse antibody conjugated with Alexa 488 (for TLR9, Invitrogen), goat anti-rabbit antibody conjugated with Alexa 488 (for LC3, MyD88, TRAF6 and NF-κB, Invitrogen) or donkey anti-goat IgG conjugated with Dylight 488 (for IRF3, Jackson ImmunoResearch) for 1 h at 4° C. in the dark. After washing, the cells were counterstained with 4,6-diamidino-2-phenylindole (DAPI, Vector Labs) and visualized with a confocal microscope (Nikon TE2000 equipped with the confocal upgrade laser kit). Fifty to one hundred cells in the images for LC3 were counted for quantification of LC3+ cells.
Beclin 1 and LC3 are two key proteins associated with the autophagy pathway and are common indicators of autophagy induction. […]

[2] = system: RAW264.7; experiment: Cell morphology and vacuoles under phase contrast microscope after GO treatment; type: cell-based, mouse; details: LPS 10 μg/ml, 24 h
Description: The mouse macrophage cell line RAW264.7 was maintained in Dulbecco's modified Eagles medium (DMEM, Gibco) containing 10% fetal bovine serum (FBS, Gibco) and subcultured upon 70-80% confluency. For GO treatment, the cells were seeded to 6-well plates (3×10^5 cells/cm^2) overnight and cultured using the medium supplemented with GO at final concentrations of 5 or 100 μg/ml for 24 h. In parallel, the cells were treated with LPS (10 μg/ml, Sigma) for 24 h as the positive control. After the treatment, the cell morphology and vacuoles were observed under the phase contrast microscope.
To examine how GO nanosheets influenced the macrophage, RAW 264.7 cells were incubated with small GO at either 5 μg/ml (designated as GO5 group) or 100 μg/ml (designated as GO100 group) for 24 h.

[3] = system: RAW 264.7 cells; experiment: Cell death and TUNEL apoptosis of treated macrophages; type: cell-based; details: LPS 10 μg/ml
[4] = system: RAW 264.7 cells; experiment: Transmission electron microscopy of autophagic vacuoles; type: cell-based, mouse; details: LPS 10 μg/ml
Description: The cells were harvested, centrifuged (215×g, 10 min), washed with cold PBS and fixed with 2.5% glutaraldehyde (in 0.2 M sodium cacodylate, pH 7.4). The samples were then fixed in 1% OsO4 for 1 h at 4° C., dehydrated with increasing concentrations of ethanol, embedded in spur resin and sectioned. The ultrathin sections were stained with uranyl acetate and observed under the TEM.

[5] = system: RAW 264.7 cells; experiment: ELISA of cytokines in supernatant of treated macrophage cells; type: cell-based, mouse; details: LPS
Description: At 24 h post-treatment, the supernatant was collected from the GO-treated cell culture and analyzed using ELISA kits specific for mouse IL-2, IL-10, TNF-α, IFN-β and IFN-γ. The cells were lysed for Western blot using primary antibodies (1:1000 dilution) specific for LC3, Beclin 1 or β-actin (A-2066, Sigma) and the secondary antibody was HRP-conjugated IgG (1:5000 dilution, Amersham Biosciences). The images were developed using the GeneGnome HR scanner (Syngene).

Row | Compound | GO100-triggered formation of LC3+ aggregate dots ([1]; pre-treatment of cells with the autophagy inhibitor) | formation of vacuoles inside the cells [2] | cell death [3] | autophagic vacuoles (AV) by TEM [4] | Beclin 1 and LC3 dots by immunofluorescence ([1]; LPS-treated cells) | cytokine secretion [5]
1 | Cn1cnc(N)c2ncnc1-2 [3-MA, 3-methyl adenine] | diminished the GO100-triggered formation of LC3+ aggregate dots |  |  |  |  | 
2 | lipopolysaccharides [LPS] |  | also observed in the LPS-treated cells | also observed in the LPS-treated cells | triggered more prominent AV | also observed in the LPS-treated cells | cytokine secretion triggered by LPS
